Results from patent publication US6943190B2, “Method of using pyruvate and/or its derivatives for the treatment of cytokine-mediated inflammatory conditions” (University of Pittsburgh-of the Commonwealth System of …, priority 2001, dated 2005).

How the values were obtained:
IL6 = experiment: Peak serum IL6 in endotoxemic mice (ELISA); format: in vivo, Balb/C mice; conditions: pretreatment, data not shown
Experimental: (§1) Endotoxin shock. Mice were injected with endotoxin (Escherichia coli lipopolysaccharide, LPS 0111:B4; Sigma Chemical Co, St. Louis, Mo.) that was dissolved in sterile pyrogen-free saline at stock concentrations of 10 mg/ml. LPS solutions were sonicated for 20 min immediately prior to use for each experiment. Mice received an LD75 dose of LPS (5 mg/kg, i.p.). Blood was collected at different times after LPS administration, allowed to clot for 2 h at room temperature, then centrifuged for 20 min at 1,500 g. Serum samples were stored at […] prior to analysis. Mortality was recorded for up to 3 weeks after injection to ensure that no additional late deaths occurred.
(§2) Cytokine measurements. TNF concentration in mouse serum and in conditioned media from RAW 264.7 cell cultures was measured by ELISA (minimum detectable concentration=10 pg/ml). […] Mouse serum IL-6 and IL-1β levels were measured using ELISA kits (R&D Systems, Inc., Minneapolis, Minn.). HMGB-1 was analyzed by western blot as previously described by Wang et al, 1999. […] Protein was electroblotting to Immun-blot PVDF membrane (Bio-rad, Hercules Calif.) and HMGB-1 was analyzed using polyclonal 241 antibody and secondary anti-rabbit horseradish peroxidase (Amersham, Pitscataway, N.J.). Standard curves were constructed using r-HMGB-1, and the intensity of the 30 kD band analyzed by densitometry. […]

TNF = experiment: Serum TNF in endotoxemic mice (ELISA); format: in vivo, Balb/C mice; conditions: 2 hours after LPS
Experimental: as §1, §2

HMGB-1 = experiment: Serum HMGB-1 in endotoxemic mice (western blot); format: in vivo, Balb/C mice; conditions: for serum HMGB1: pretreatment 40 mg/kg 30 min before LPS, measured 20 hours after onset of endotoxemia
Experimental: as §1
Cytokine measurements. TNF concentration in mouse serum and in conditioned media from RAW 264.7 cell cultures was measured by ELISA (minimum detectable concentration=10 pg/ml). Recombinant mouse TNF standards were obtained from R&D Systems (Inc., Minneapolis, Minn.) and dissolved in 0.1% bovine serum albumin solution (BSA, low endotoxin grade from Sigma Chemical Co., St. Louis, Mo.). Monoclonal antibody to mouse TNF was purchased from Biosource International, Inc., Camarillo, Calif. Human TNF monoclonal antibody, human TNF antiserum and mouse TNF antiserum were prepared and contributed by Dr. Christine Metz. Mouse serum IL-6 and IL-1β levels were measured using ELISA kits (R&D Systems, Inc., Minneapolis, Minn.). HMGB-1 was analyzed by western blot as previously described by Wang et al, 1999. […] Protein was electroblotting to Immun-blot PVDF membrane (Bio-rad, Hercules Calif.) and HMGB-1 was analyzed using polyclonal 241 antibody and secondary anti-rabbit horseradish peroxidase (Amersham, Pitscataway, N.J.). Standard curves were constructed using r-HMGB-1, and the intensity of the 30 kD band analyzed by densitometry. […]
The therapeutic efficacy of the delayed administration of ethyl pyruvate after the onset of endotoxemia was assessed. […]

Caco-2 human enterocytes = experiment: Cytomix-induced hyperpermeability of Caco-2 monolayers (FD4 clearance); format: cell-based; conditions: 48 h incubation with cytomix (IFN-γ, IL-1β, TNF-α); both of the highest concentrations; P<0.001
Experimental: To test for the effect of ethyl pyruvate on a stabilizing calcium salt solution (REPS) in a cytokine-induced intestinal epithelial hyperpermeability condition, an in vitro model of intestinal epithelial injury due to inflammation, such as might occur in cases of inflammatory bowel disease (i.e., Crohn's disease or ulcerative colitis) was used.
Exemplary materials and methods include the following, while minor modifications can be made: Caco-2 human enterocytes (10^5 cells/well) were plated on permeable filters in 12-well Transwell bicameral chambers (COSTAR, Corning, N.Y.) and fed biweekly. Permeability studies were carried out using confluent monolayers between 21-28 d after seeding. The permeability probe was FITC-labeled dextran (4400 Da; FD4). A sterile stock solution of FD4 (25 mg/ml) was prepared by dissolving the compound in HEPES-buffered DMEM complete medium (pH 6.8) and passing it through a filter ([…] pore size). For permeability studies, the medium was aspirated from the apical and basolateral sides of the Transwell chambers. FD4 solution (200 μl) was added to the apical compartments. […] (Menconi et al., Am. J. Physiol. (1997) 272:G1007-G1021.) The permeability of monolayers was expressed as a clearance (C), which was calculated as previously described. […]

Question: `CCOC(=O)C(C)=O` [ethyl pyruvate] was tested. Which “peak serum level of IL6” value (IL6) did it give?
Answer: attenuated

Question: What about the “serum TNF” value (TNF; pretreatment 40 mg/kg 30 min before LPS 5 mg/kg i.p., vehicle printed 17+/−4, P<0.05) of the same compound?
Answer: 39+−6 ng TNF/ml

Question: And the “release of serum TNF (in words)” value (TNF; pretreatment 40 mg/kg)?
Answer: significantly attenuates the release of serum TNF

Question: And the “systemic release of HMGB-1 (serum)” value (HMGB-1; delayed treatment beginning 4 hours post-LPS, measured at 20 hours)?
Answer: significantly attenuated the systemic release of HMGB-1

Question: What about the “serum HMGB1” value (HMGB-1) of the same compound?
Answer: significantly attenuated

Question: What about the “serum HMGB1” value (HMGB-1; listed as Ethyl pyruvate) of the same compound?
Answer: significantly inhibits serum HMGB-1 levels

Question: What about the “cytomix-induced hyperpermeability of Caco-2 monolayers (FD4 clearance)” value (Caco-2 human enterocytes) of the same compound?
Answer: significantly decreased cytomix-induced hyperpermeability
